Assays:
[1] = Metabolite formation kinetics in MLMs; format: in vitro ADME; details: mouse liver microsomes
Protocol: (§1) Microsomal incubations were conducted as described above with modifications. […] The K m was calculated using nonlinear regression in Graphpad Prism. Due to the lack of authentic standard and relatively short rate of parent disappearance, the maximum formation velocity (V max) could not be determined for either metabolites.

[2] = Metabolite formation kinetics in HLMs; format: in vitro ADME; details: human liver microsomes
Protocol: as §1

[3] = Metabolite identification in samples from mouse pharmacokinetic studies (candidate metabolites); format: in vivo; details: LC‐MS/MS of NCS‐382‐treated mouse samples
Protocol: Metabolite identification was conducted on samples obtained from pharmacokinetic studies in mice. Analytical conditions and equipment were similar to those described above with some modifications. Samples (10 μL) were injected onto a Kinetex PFP (50 × 2.1 mm, 1.7 μm particle size) UPLC column maintained at 40°C. […] MS experiments consisted of enhanced MS (EMS), neutral loss (NL), precursor ion scan (Prec), and MRM each followed by MS/MS experiments when necessary. Constant conditions such as a source temperature (450°C), signal threshold (500 cps), and CAD gas (“high”) were used, while additional parameters (e.g., collision energy, collision energy spread, mass range, etc.) were obtained by the software during data‐dependent scans. Studies were performed using sera and brain samples, with time points pooled for individual matrices and a reference control derived by pooling the sera or brain homogenates from three vehicle‐treated animals.
Using the Light Sight software, a comprehensive list of prospective phase I and phase II metabolites were targeted (Table S2). […] A number of structurally feasible metabolites (including oxidation) were initially identified, but could not be confirmed by their mass fragmentation patterns. […] Both peaks were detected in urine samples (Fig. S1B), but not in feces.

GHB receptor = target: GHB receptor; design: method as in Molnár et al. 2006; details: ref Molnár et al. 2006; cited from earlier work
aldh5a1^−/− mice = test system: aldh5a1^−/− mice; design: method as in Gupta et al. 2002; details: ref Gupta et al. 2002; cited from earlier work
rat [4] = test system: rat; design: method as in Poggioli et al., 1999; details: rat, 25, 100, 200 mg/kg p.o.; ref Poggioli et al., 1999; cited from earlier work
rat [5] = test system: rat; design: method as in Colombo et al., 1999; details: 400 mg/kg i.p., ref Colombo et al., 1999; cited from earlier work
mouse = test system: mouse; design: method as in Martellotta et al., 1998; details: 12.5 mg/kg i.p., ref Martellotta et al., 1998; cited from earlier work
rat [6] = test system: rat; design: method as in Schmidt-Mutter et al., 1998; details: 300 mg/kg i.p., ref Schmidt-Mutter et al., 1998; cited from earlier work
rat [7] = test system: rat; design: method as in Snead III, 1996; details: 100-500 mg/kg i.p., ref Snead III, 1996; cited from earlier work
[8] = NCS‐382–diclofenac interaction study (inhibition of NCS‐382 glucuronidation); details: mouse
Protocol: In this study, mice (n = 3–4 per group) were assigned (balanced for weight and gender) to one of three treatments and collected at one of three time points (0.5, 1, or 2 h).

[9] = 120 min, read-out: Km for dehydrogenation
[10] = saturation not obtained, read-out: Km for glucuronidation

## O=C(O)/C=C1\CCCc2ccccc2C1O (stereo not shown) [NCS‐382, 6,7,8,9‐tetrahydro‐5‐hydroxy‐5H‐benzo‐cyclohept‐6‐ylideneacetic acid]
[1]; [9]
  Km: 29.5 ± 10 µM
[1]; [10]
  Km: > 100 µM
[2]; [9]
  Km: 12.7 ± 4.8 µM
[2]; [10]
  Km: > 100 µM
[3]
  Peak Area (%): 25%
GHB receptor
  Ki: 1200 nM
aldh5a1^−/− mice
  lifespan of SSADHD mice: significant lifespan extension
Rat [4]
  gastric emptying: dose dependently, ↓ gastric emptying
  prokinetic effect of GHB: antagonized the prokinetic effect of GHB
Rat [5]
  blood ethanol levels: NCS-382 reduces blood ethanol levels, likely due to a lessened absorption of ethanol from the gastrointestinal tract.
mouse
  abuse potential of GHB: GHB was shown to have abuse potential, which was blocked by NCS-382.
Rat [6]
  reversal of the anxiolytic effect of GHB: The anxiolytic effect of GHB were reversed by the benzodiazepine receptor antagonist, flumazenil, but not by naloxone or NCS-382.
Rat [7]
  two chemically induced models for absence seizures: NCS-382 was protective against two chemically induced models for absence seizures.
[8]; both, in vivo, 300 mg/kg
  AUC(0-t): 411 µM·h
[8]; treatment NCS‐382 300 mg/kg + Diclofenac 25 mg/kg
  Brain AUC0–2 h [90% CI]: 182 [164–200] ^a nmol/g/tissue*h
[8]; treatment NCS‐382 300 mg/kg alone
  Brain AUC0–2 h [90% CI]: 128 [115–141] nmol/g/tissue*h

Source: publication PMC5115179 (Pharmacology Research & Perspectives, 2016)
